Source: article doi:10.1101/620765v2 (biorxiv, 2019)
Like-named read-outs stand apart in the source and are kept apart here.

Legend:
[1] = biological target: T1, human αVβ3 expressed in HEK-293 cells (HEK-αVβ3) (Homo sapiens, UniProt P05106+P06756); experiment: inhibition of HEK-αVβ[…] cell adhesion to immobilized fibrinogen; format: cell-based
[2] = biological target: T1, human αVβ3 expressed in HEK-293 cells (HEK-αVβ3); experiment: exposure of mAb AP5; format: cell-based
[3] = biological target: T2, purified αVβ5 (R&D Systems) (Homo sapiens, UniProt P06756+P18084); experiment: inhibition of binding of purified αVβ[…] to immobilized vitronectin, plate assay
[4] = biological target: purified human αVβ3 (R&D Systems) (Homo sapiens, UniProt P05106+P06756); experiment: biochemical
[5] = biological target: T1, human αVβ3 expressed in HEK-293 cells (HEK-αVβ3); experiment: cell-based; parameters: species or system HEK-293 expressing human αVβ3
[6] = biological target: T1, human αVβ3 expressed in HEK-293 cells (HEK-αVβ3); experiment: inhibition of HEK-αVβ[…] cell adhesion to fibronectin; format: cell-based
[7] = biological target: T2, purified αVβ5 (R&D Systems); settings: read-out: IC50 (μM) purified αVβ5 binding to vitronectin; antagonist

| IC50 [1] [nM] | EC50 [2] [nM] | Structure (SMILES) | further results |
| --- | --- | --- | --- |
| 3 | 12 | COc1ccc(C(CC(=O)O)N2CCN(CCCc3ccc4c(n3)NCCC4)C2=O)cn1 (racemic) [A, TDI-806] |  |
|  |  | O=C(CCCCc1ccc2c(n1)NCCC2)NCCC(Nc1nc2ccccc2o1)C(=O)O (racemic) [E, TDI-3761] | IC50 [3]: 875 ± 348 nM; IC50 [4]: 0.049 ± 0.05 µM; IC50 [5]: 172 ± 66 nM; IC50 [6]: 79 ± 10 nM |
| 49 ± 16 |  | O=C(CCCCc1ccc2c(n1)NCCC2)NCCC(NC(=O)c1nc2ccccc2s1)C(=O)O (racemic) [F, TDI-3909] |  |
|  |  | COc1ccc(C(CC(=O)O)N2CCN(CCCc3ccc4c(n3)NCCC4)C2=O)cn1 (racemic) [MK-429 racemate] | IC50 ([4]; read-out: IC50 (μM) purified αVβ3 binding to penton base, antagonist): 0.011 ± 0.005 µM; IC50 [7]: 0.035 ± 0.019 µM |
| 756 ± 607 | > 10000 | O=C(O)CCNC(=O)CCCCc1ccc2c(n1)NCCC2 [C, TDI-1367] |  |
| 1020 | > 10000 | O=C(O)CCCNC(=O)CCCCc1ccc2c(n1)NCCC2 [D, TDI-2668] |  |
|  |  | O=C(CCCCc1ccc2c(n1)NCCC2)NCC[C@H](NC(=O)c1nc2ccccc2s1)C(=O)O [G, TDI-4161] | IC50 [3]: 689 ± 374 nM; IC50 [4]: 0.012 ± 0.005 µM; IC50 [6]: 42 ± 21 nM |
| 123 ± 55 | > 10000 | O=C(CCCCc1ccc2c(n1)NCCC2)NCC[C@@H](Nc1nc2ccccc2o1)C(=O)O [TDI-4158] |  |
|  | > 10000 | O=C(CCCCc1ccc2c(n1)NCCC2)NCC[C@H](Nc1nc2ccccc2o1)C(=O)O [TDI-4160] | IC50 ([1]; 1 mM Mg2+, 2 mM Ca2+, pH 7.4, room temperature): 185 ± 42 nM |
